According to US20230158151A1 (NURIX THERAPEUTICS, INC., priority 2021, published 2023):
Like-named read-outs stand apart in the source and are kept apart here.

Experiments:
[1] = Mouse PK Analysis (plasma LC/MS/MS, noncompartmental PK parameters); type: in vivo; parameters: AUC(0-t): concentration or dose not given beside the values; details: mice; for AUC(0-t) / Cmax / Tmax: mouse, oral administration, plasma
Description: Compounds 30 and 29 were administered to mice orally. After 6 hours or 24 hours, splenocytes cells were harvested. ITK was evaluated by Western blotting. Plasma concentrations were determined by LC/MS/MS. Plasma samples were protein precipitated by addition of 100 μl of acetonitrile containing 50 ng/ml of internal standard. The resulting mixture was vortexed and centrifuged at 4000 RPM for 5 minutes. An aliquot of the resultant supernatant (75 μl) was added to 75 μl of 0.1% formic acid in water to constitute the final sample for injection. Samples were injected on a Shimadzu Exion LC Binary Gradient AD Pump HLPC system connected to a Sciex QTRAP 6500+ mass spectrometer. Five μl of sample was injected onto a Waters Acquity UPLC BEH C18 column 130A (2.1×30 mm, […]) at 40° C. utilizing a flow rate of 700 μl/minute. Mobile Phase A was 0.1% formic acid in water and mobile phase B was 0.1% formic acid in acetonitrile. A linear gradient of 15-95% B over 1.0 minute was used. The mass spectrometer was operated in positive ion electrospray mode with multiple reaction monitoring for maximum sensitivity. Sciex Analyst software (version 1.6.3) was used for LC/MS/MS instrument control and acquisition. Compound concentration was determined against a standard curve of internal standard versus compound peak area ratio. Noncompartmental PK parameters were determined using Phoenix 32 software (version 8.2.0.4383) from Certara. Plasma concentrations from the LC/MS/MS analyses, dose, route of administration, and desired units were utilized for PK parameter calculations. […] FIG. 3C provides the concentration over time of compound 30 following in vivo oral administration in the 6 hour and 24 hour assays.
Cmax, Tmax and AUClast were all calculated using a WinNonLin Phoenix 64 v 8.2.0.4383. Using non-compartmental analysis, Tmax, Cmax and AUClast were determined as follows:
Tmax—Time of maximum observed concentration. Cmax—Maximum observed concentration, occurring at time Tmax, as defined above. AUClast—Area under the curve from the time of dosing to the time of the last measurable (positive) concentration (Tlast).

[2] = biological target: T1, ITK (Homo sapiens, UniProt Q08881); assay: ITK Degradation HiBiT Assay; type: cell-based
T1 construct: Compounds provided herein were assayed in vitro with ITK HiBit cell lines; endogenous in cells; host or cells: Molt4 (ATCC CRL-1552 [sic]), monoclonal clone 1C10
T1 sequence (Q08881 1-620): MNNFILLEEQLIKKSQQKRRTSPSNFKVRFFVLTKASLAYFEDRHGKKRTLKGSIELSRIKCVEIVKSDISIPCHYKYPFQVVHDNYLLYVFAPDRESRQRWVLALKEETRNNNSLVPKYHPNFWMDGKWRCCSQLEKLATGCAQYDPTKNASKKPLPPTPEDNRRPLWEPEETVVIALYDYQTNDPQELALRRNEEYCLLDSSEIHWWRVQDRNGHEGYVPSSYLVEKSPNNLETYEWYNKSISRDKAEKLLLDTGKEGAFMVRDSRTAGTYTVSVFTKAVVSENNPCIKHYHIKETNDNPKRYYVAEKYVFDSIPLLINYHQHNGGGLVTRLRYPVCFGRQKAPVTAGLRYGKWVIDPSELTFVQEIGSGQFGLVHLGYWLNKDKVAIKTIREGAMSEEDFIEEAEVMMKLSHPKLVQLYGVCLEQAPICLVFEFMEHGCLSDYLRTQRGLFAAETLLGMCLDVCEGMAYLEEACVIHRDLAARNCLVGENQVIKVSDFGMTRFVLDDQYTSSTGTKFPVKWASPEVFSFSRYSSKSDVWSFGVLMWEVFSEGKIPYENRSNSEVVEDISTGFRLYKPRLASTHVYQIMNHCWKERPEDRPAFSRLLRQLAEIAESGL
Description: Compounds provided herein were assayed in vitro with ITK HiBit cell lines. Compound dilution series (11-point, 5 fold dilutions in DMSO, columns 2-12 with replicate in rows A/B, C/D, E/F, G, H at 2000× the final required concentrations were prepared in 96 well plate (Falcon, cat. no. 353077). Column 1, rows A-H were control DMSO. The 2000× solutions ranged from 2 mM to 1.024 nM (final assay concentration range 1 μM to […]). The 2000× solutions were added to cells in […], for a final DMSO concentration of 0.5% and final assay compound concentration of 1×. For the cells, C-terminal HiBiT-tagged Molt4 cells (ATCC CRL-1552, monoclonal cell line clone 1C10) were plated at 1×10^6 cells/mL, 100 μL/well ([…]) in complete RPMI (10% FBS, 1% L-glutamine). The cells were incubated with compound 32 and compound 30 for 4 hrs at 32° C./6% CO2.
Following incubation, 100 μL of complete Nano-Glo HiBiT Lytic Detection Reagent (Nano-Glo HiBiT Lytic Buffer with 1:50 Nano-Glo HiBiT Lytic Substrate and 1:100 LgBiT Protein; Promega cat. no. N3O40) was added. Cells were further incubated for 10 min at room temperature (RT). Luminescence units (LU) were read on an EnVision plate reader (Perkin Elmer, 0.1 sec per well). Percent ITK remaining per sample was calculated as follows: […]
Using Graphpad Prism, % ITK remaining values were plotted as a function of compound concentration. To determine DC50 and Dmax values, resulting curves were fit to the Prism curve-fitting equation “log(inhibitor) vs response−Variable slope (four parameters)” (reported best fit value IC50 used as DC50). ITK was measured with antibody-based MSD (Meso-Scale Discovery) assays shown below.

[3] = MOLT-4, C-terminal HiBiT-tagged Molt4 cells, 4 hrs incubation, read-out: HiBiT DMax (%)

AUC(0-t) [1] [µM·h]	Cmax [1] [nM]	Tmax [1] [h]	Dmax ([2]; ITK degradation in HiBiT cell line, FIG. 1, read-out: Dmax values (FIG. 1)) [%]	Dmax [2, 3] [%]	DC50 ([2]; C-terminal HiBiT-tagged Molt4 cells, 4 hrs incubation) [pM]	Compound	detection in plasma ([1]; oral, 6 hour and 24 hour assays)
1.25	870	2	90 to 100	85	–	C[C@@H](C(=O)N(C)c1ccc2cc(-c3n[nH]c4c3C[C@@H]3C(F)(F)[C@]3(C)C4)[nH]c2c1)N1CCN(CC2CCN(c3ccc(C4CCC(=O)NC4=O)cn3)CC2)CC1 (stereo partly drawn) [Compound 30, (2S)—N-(2-((4aS,5aR)-5,5-difluoro-5a-methyl-1,4,4a,5,5a,6-hexahydrocyclopropa[f]indazol-3-yl)-1H-indol-6-yl)-2-(4-((1-(5-(2,6-dioxopiperidin-3-yl)pyridin-2-yl)piperidin-4-yl)methyl)piperazin-1-yl)-N-methylpropanamide]	detected in plasma through 6 and 24 hours
28	5100	2	–	88	3	CC1(C)CCc2c(-c3cc4ccc(C(=O)N5CCN(CC6CCN(c7ccc(C8CCC(=O)NC8=O)nc7)CC6)CC5)cc4[nH]3)n[nH]c2C1 (centres unmarked) [Compound 42, 3-(5-(4-((4-(2-(6,6-dimethyl-4,5,6,7-tetrahydro-1H-indazol-3-yl)-1H-indole-6-carbonyl)piperazin-1-yl)methyl)piperidin-1-yl)pyridin-2-yl)piperidine-2,6-dione]	–
1.69	609	1	–	–	–	CN(C(=O)CC1CCN(c2ccc(C3CCC(=O)NC3=O)cn2)CC1)c1ccc2cc(-c3n[nH]c4c3C[C@@H]3C(F)(F)[C@]3(C)C4)[nH]c2c1 (some centres unmarked) [Compound 27]	–
